Test results: paper PMC5295233, “Biochemical and Structural Insights into a Novel Thermostable β-1,3-Galactosidase from Marinomonas sp. BSi20414” (Marine Drugs, 2017)

Test system: T1, MaBGA (β-galactosidase from Marinomonas sp. BSi20414)
T1 construct: native enzyme purified from the wild-type strain (ammonium sulfate, HiTrap DEAE FF); GH42; catalytic Glu142 and Glu314; no tag
Experiment: release of o-nitrophenol at […] nm, nonlinear Michaelis-Menten fit
Format: biochemical
Conditions: apparent Km; 50 mM PBS pH 7.0 (standard assay); ONPG 0.1-19 mM; temperature not given

Km: 14.2 mM
SMILES: O=[N+]([O-])c1ccccc1O[C@@H]1O[C@H](CO)[C@H](O)[C@H](O)[C@H]1O [ONPG, o-nitrophenyl-β-D-galactopyranoside]
